Patent publication US20220089540A1 (Board of Trustees of Michigan State University, priority 2019, published 2022)
Several values for one entry are separate records, joined by “and”; a condition that tells them apart may be missing. Identical values can stand only once.

Tests used:
[1] = tested on: inducible nitric oxide synthase (iNOS); experiment: iNOS suppression / NO assay in LPS-stimulated macrophages or RAW264.7 cells (Griess reaction); format: cell-based, mouse; conditions: for activity at 0.1 µM / activity at 0.3 µM / activity at 0.125 µM / activity at 0.5 µM: Mus musculus; for activity at 0.1 µM / activity at 0.3 µM: RAW264.7, 24 h, percent of the LPS-stimulated control, lower is better, Table 6; for activity at 0.3 µM: at 300 nM, read-out: iNOS suppression; for activity at 0.125 µM / activity at 0.5 µM: RAW264.7, Control 100, lower numbers indicate higher efficacy, read-out: NO Assay; for activity at 0.125 µM: 125 nM; for activity at 0.5 µM: 500 nM
Protocol: Macrophages or RAW264.7 like-cells were treated with various concentrations of rexinoids and stimulated with lipopolysaccaride (LPS) to activate inducible nitric oxide synthase (iNOS) to produce nitric oxide. This in vitro iNOS assay was rapid, reproducible, quantitative and predictive. Nitric oxide is implicated in the apoptosis of cancer cells via regulation of RXRs. There is a tight correlation between the % reduction of iNOS and efficacy in preclinical lung cancer models. Lower numbers indicate higher efficacy.
RAW264.7 cells were incubated with 300 nM rexinoids and stimulated with 1-2 ng/ml lipopolysaccaride (LPS) for 24 hours to activate inducible nitric oxide synthase (iNOS) to produce nitric oxide. Nitric oxide released into the media was measured by the Griess reaction.
Also, for Table 6, the iNOS suppression is the percent of the LPS-stimulated control where the compounds were measured at 100 nM or 300 nM.
Macrophages or RAW264.7 cells were treated with various concentrations of rexinoids listed in Table 7 and stimulated with lipopolysaccaride (LPS) to activate inducible nitric oxide synthase (iNOS) to produce nitric oxide. Nitric oxide (NO) is implicated in the apoptosis of cancer cells via regulation of RXRs. There is a tight correlation between the % reduction of iNOS and efficacy in preclinical lung cancer models. The in vitro iNOS assay is rapid, reproducible, quantitative and predictive, as NO production is measured in culture medium using the Griess reaction. Values are either presented as % inhibition or IC50 values.

[2] = Triglycerides in rodent models; format: in vivo
Lung Cancer Model = experiment: Lung cancer model rank order; format: in vivo
human RXRa = biological target: T1, human RXRa (Homo sapiens, UniProt P19793); experiment: RXR activation luciferase reporter assay; format: cell-based; conditions: for EC50: Table 6, read-out: RXRα activation (EC50); for RXR assay: luciferase, Control 0, higher numbers indicate higher potency
T1 sequence (P19793 1-462): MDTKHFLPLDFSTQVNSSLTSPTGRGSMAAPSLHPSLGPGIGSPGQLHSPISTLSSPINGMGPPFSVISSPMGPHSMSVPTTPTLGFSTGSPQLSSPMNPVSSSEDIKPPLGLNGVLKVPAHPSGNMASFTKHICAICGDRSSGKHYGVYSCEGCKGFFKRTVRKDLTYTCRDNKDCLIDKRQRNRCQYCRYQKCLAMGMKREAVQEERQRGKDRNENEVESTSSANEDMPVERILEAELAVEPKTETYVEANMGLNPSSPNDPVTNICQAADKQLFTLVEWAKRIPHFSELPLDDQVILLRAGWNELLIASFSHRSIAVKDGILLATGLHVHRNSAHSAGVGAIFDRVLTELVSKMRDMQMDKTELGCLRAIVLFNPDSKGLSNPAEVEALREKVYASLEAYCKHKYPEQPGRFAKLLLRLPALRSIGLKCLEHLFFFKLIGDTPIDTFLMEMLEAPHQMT
Text: Rexinoids are agonists for the retinoid X receptors (RXRs). In this assay, the human RXRa promoter is functionally linked to a luciferase reporter gene. Changes in luciferase expression served as a sensitive surrogate measure of RXR activity. Higher numbers indicate higher potency.

SREBP = SREBP induction in human liver (HepG2) cells, RT-PCR; format: cell-based; set-up: key to SREBP: fold induction vs DMSO control; conditions: for SREBP activation: fold induction compared to DMSO, several values per cell, Table 6; for SREBP: 300 nM, Control 1.00, lower numbers indicate better safety, Table 2
Protocol: The SREBP transcription factor is involved in triglyceride synthesis, and its activation correlates with increased triglycerides in vivo. […] Lower numbers indicate better safety. […] Lower numbers indicate better safety. Also, for Table 6, SREBP activation was measured as fold induction compared to DMSO, where a lower value indicates the compound is an improvement over a control.

LogD at pH 7.4 = format: physicochemical; conditions: pH 7.4 buffer
Protocol: Note that for Table 6, Log D is the distribution constant, which is descriptor of the lipophilicity of a molecule. This was determined using an aqueous phase that was adjusted to pH 7.4 using a buffer.

[3] = Toxicity in A/J mice with lung tumors fed rexinoids plus carboplatin and paclitaxel; format: in vivo; conditions: 100 mg/kg diet, 7 weeks
Protocol: A/J mice with lung tumors (detected by ultrasound) were fed rexinoids in their diets (at 100 mg/kg diet) and injected twice every other week with carboplatin and paclitaxel.

PD-L1 = PD-L1 induction in macrophages or RAW264.7 cells with cancer cell conditioned media (flow cytometry); format: cell-based, mouse; conditions: for PD-L1: Table 2, Control 39.8, higher numbers indicate better upregulation; for PD-L1 Levels: Table 4, Control 43.3
Protocol: RAW 264.7 mouse macrophage-like (ATCC) and E18-14C-27 (Wu et al., Cancer Res. 62, 6376-6380 (2002)) cells were cultured in DMEM supplemented with 10% fetal bovine serum (FBS). RAW 264.7 cells were cultured at 50000/well in a 6 well plate for 24 hours to determine PD-L1 levels. E18-14C-27 cells were cultured for 72 hours in the presence of LG268 for protein levels. Conditioned media was collected from E18-14C-27 at 60-70% confluence for 24 hours; media was then collected and centrifuged at 900 rpm for 5 minutes to eliminate any cell debris.
For PD-L1 staining, RAW 264.7 cells were plated at 25000 cells/ml in 6 well plates for 24 hours before adding conditioned media from E18-14C-27 and LG268. RAW 264.7 cells were cultured for additional 24 hours with E18-14C-27 conditioned media and LG268. […] THP-1 cells were stained and analyzed for the levels of PD-L1 following the same protocol.
Inhibitory receptors on lymphocytes such as PD-1 (programmed cell death protein 1) are important immune checkpoints that protect against autoimmunity as the interaction between PD-L1 (ligand) and the PD-1 receptor expressed on immune cells suppresses T cell activity. Immuno-oncology is revolutionizing cancer treatment, and enormous research efforts are ongoing to identify drugs that upregulate PD-L1 so that they can be combined with checkpoint inhibitors to boost efficacy. Macrophages or RAW264.7 cells are treated with conditioned media from cancer cells and rexinoids, and PD-L1 expression determined by flow cytometry. Higher numbers indicate better upregulation of PD-LI.
Using methods described herein, macrophages or RAW264.7 cells were treated with selected rexinoids and with conditioned media from cancer cells. Structures of the rexinoids are shown below.
PD-L1 expression was determined by flow cytometry.

RAR receptor = conditions: cited from earlier work
[4] = tested on: mammary gland tumors of MMTV-Neu mice; experiment: MMTV-Neu mouse model of HER2 positive breast cancer, rexinoid in diet; conditions: 100 mg/kg diet, LG268 5 days
Protocol: Tumors or mammary glands were homogenized in EBC buffer (1M Tris pH 8, 5M NaCl) with the same protease inhibitors and 10% NP-40 and incubated on ice for 30 min. Protein concentrations were determined by the BCA assay (Sigma-Aldrich). Proteins were resolved by SDS-PAGE, transferred to a nitrocellulose membrane and analyzed with the following antibodies: vinculin, p-STAT1, p-STAT3, p-STAT5 and mouse and rabbit secondary antibodies (Cell Signaling); PD-1, CD206 (Abcam); PD-L1 (R&D). ImageJ was used to quantify the immunoblots, and results were plotted and statistically analyzed using Prism 6. All images shown are representative of 3 independent experiments.
One third of the tumor, mammary gland and spleen removed from MMTV-neu or MMTV-PyMT mice were minced separately and incubated in digestion media consisting of collagenase (300 U/ml, Sigma), dispase (1 U/ml, Worthington), and DNAse (2 U/ml, Calbiochem) for 30 minutes at 37° C. with stirring. Cells were then passed through a 40 μm cell strainer (BD Falcon), and red blood cells eliminated with lysis solution. […] Propidium iodide staining was used to exclude dead cells.
One third of the tumor, spleen and one mammary was removed from MMTV-neu and PyMT mice and fixed in 10% phosphate-buffered formalin for 48 hours, embedded in paraffin blocks, and sectioned (5-6 μm). Hydrogen peroxide was used to quench endogenous peroxidase activity. Sections were immunostained with antibodies raised against CD206 (1:200, Abcam), Gr1 (1:40, BM8, R&D), CD8 (1:40, Biolegend), FOXP3 (1:50, EBiosciences), PD-1 (1:100, Abcam), PD-L1 (1:50, Abcam), cleaved caspase 3 (Cell Signaling) and visualized with biotinylated anti-rabbit or anti-rat secondary antibodies (Cell Signaling or Vector Labs). Signal was detected using a DAB substrate (Cell Signaling) following the manufacturer's recommendations. Sections were counterstained with hematoxylin (Vector Labs).
Both rexinoid treatments were 100 mg/kg of diet, which is equivalent to 25 mg/kg of body weight (FIG. 1B).

[5] = bexarotene 10 days, western blot

For `C/C(=C/C=C/C(C)=C/C(=O)O)c1cc(C(C)(C)C)cc(C(C)(C)C)c1OCC(F)F` [drawing 96], the activity at 0.1 µM ([1]; at 100 nM) was 30 to 35%, the “Triglyccerides (Rodent Models)” value [2] was “No Elevation” and the “Lung Cancer Model Rank Order” value (Lung Cancer Model) was 4.
With `Cc1cc2c(cc1-n1c(C(F)(F)F)nc3cc(C(=O)O)ccc31)C(C)(C)CCC2(C)C` [reference compound] the “Triglyccerides (Rodent Models)” value [2] was “No elevation (mice)” and the EC50 (human RXRa) was 1 to 25 nM.
With `CCN(c1cc(C(C)(C)C)cc(C(C)(C)C)c1)c1ccc(C(=O)O)cn1` [drawing 105] the activity at 0.3 µM [1] was 30%, the SREBP activation (SREBP) was 1.6 fold induction and 2.85 fold induction and 3.1 fold induction and the logD (LogD at pH 7.4) was 2.9.
For `CCN(c1cc(C(C)(C)C)cc(C(C)(C)C)c1)c1ncc(C(=O)O)cn1` [drawing 106], the activity at 0.3 µM [1] was 55%, the SREBP activation (SREBP) was 3.5 fold induction and 1.8 fold induction and the logD (LogD at pH 7.4) was 2.3.
In the case of `Cc1cc2c(cc1C1(c3ccc(C(=O)O)cn3)CC1)C(C)(C)CCC2(C)C` [drawing 95, reference compound], the activity at 0.1 µM ([1]; at 100 nM) is reported as 15 to 20%, the “Triglyccerides (Rodent Models)” value [2] is reported as “Elevated” and the “Lung Cancer Model Rank Order” value (Lung Cancer Model) is reported as 1. The SREBP activation (SREBP) was 3.9 fold induction and 3.1 fold induction and 3.2 fold induction.
With `CCN(c1ccc(OCC(C)C)c(C(C)C)c1)c1ccc(C(=O)O)cn1` [reference compound] the “Triglyccerides (Rodent Models)” value [2] was “Modest elevation in female rats” and the EC50 (human RXRa) was 50 to 200 nM.
`CCN(c1ccc(C(=O)O)cc1)c1cc(C(C)(C)C)c(OC)c(C(C)(C)C)c1` [drawing 121] gave an activity at 0.3 µM [1] of 74%, an SREBP activation (SREBP) of 1.45 fold induction and a logD (LogD at pH 7.4) of 3.8.
In the case of `CC(C)CN(c1cc(C(C)(C)C)cc(C(C)(C)C)c1)c1ccc(C(=O)O)cn1` [Compound 18, 6-[(3,5-di-tert-butylphenyl)(2-methylpropyl)amino]pyridine-3-carboxylic Acid], the activity at 0.125 µM [1] is reported as 52%, the activity at 0.5 µM [1] is reported as 11.5% and the “toxicity findings (liver, triglycerides, cholesterol, fur)” value [3] is reported as “normal coats”. For the same compound, the “toxicity findings (liver, triglycerides, cholesterol, fur)” value ([3]; listed as MSU-42011) was “less toxicity than LG100268”, the PD-L1 (PD-L1; 100 nM) was 58.5 and the SREBP (SREBP) was 1.52. It also gave an RXR assay (human RXRa; 100 nM) of 12881 and an RXR assay (human RXRa; 2500 nM) of 35605.
Work on `CCN(c1ccc(C(=O)O)cc1)c1cc(C(C)C)c(OCC(C)C)cc1C` [drawing 120] yielded an activity at 0.3 µM [1] of 86%, an SREBP activation (SREBP) of 1.3 fold induction and a logD (LogD at pH 7.4) of 3.8.
With `Cc1cc2c(cc1C1(c3ncc(C(=O)O)cn3)CC1)C(C)(C)CCC2(C)C` [drawing 98, reference compound] the activity at 0.1 µM ([1]; at 100 nM) was about 25%, the “Triglyccerides (Rodent Models)” value [2] was “Modest Elevation” and the “Lung Cancer Model Rank Order” value (Lung Cancer Model) was 3. It also gave an SREBP activation (SREBP) of about 1.25 fold induction and an EC50 (human RXRa) of 25 to 50 nM.
For `CCCN(c1cc(C(C)(C)C)cc(C(C)(C)C)c1)c1ccc(C(=O)O)cn1` [drawing 117], the activity at 0.1 µM ([1]; at 100 nM) was 22%, the activity at 0.3 µM [1] was 13% and the SREBP activation (SREBP) was 1.95 fold induction and 2.9 fold induction. For the same compound, the logD (LogD at pH 7.4) was 3.4.
Compound `C=C(c1ccc(C(=O)O)cc1)c1cc2c(cc1C)C(C)(C)CCC2(C)C` [Bexarotene, bexarotene] has an activity at 0.1 µM ([1]; at 100 nM) of 30 to 35%, an activity at 0.125 µM [1] of 78% and an activity at 0.5 µM [1] of 32.4%. For the same compound, the iNOS ([1]; at 100 nM, comparators of Table 3) was 22-40% at 100 nM, the “Triglyccerides (Rodent Models)” value [2] was “Elevated” and the PD-L1 (PD-L1; 100 nM) was 58.5. For the same compound, the “PD-L1 Levels” value (PD-L1; 100 nM) was 51.2, the “PD-L1 Levels” value (PD-L1; 1000 nM) was 64 and the “PD-L1 levels in RAW 264.7 cells with E18-14C-27C conditioned media” value (PD-L1; 24 hours) was “no changes”. For the same compound, the “Lung Cancer Model Rank Order” value (Lung Cancer Model) was 5, the “binding to the RAR receptor” value (RAR receptor) was “limited RAR binding” and the “PD-L1 expression in tumors vs control” value ([4]; CW-V-125 10 days, western blot and/or immunohistochemistry) was “did not significantly induce”. The “myeloid derived suppressor cells (CD45+, CD11b+, Gr1+) in tumors” value ([4]; bexarotene 10 days, control 1.9%) was “did not alter”, the “mammary tumor size (tumor weight as percentage of total body weight)” value ([4]; bexarotene 10 days, control diet 3.2%) was “did not reduce” and the “cleaved caspase 3 in tumors” value ([4]; bexarotene 10 days, immunohistochemistry) was “did not increase”. For the same compound, the “reduction of CD206 expression in tumor lysates” value [4, 5] was “did not induce a change”, the “reduction of p-STAT1 expression in whole tumor lysates” value [4, 5] was “no changes” and the SREBP (SREBP) was 2.13. For the same compound, the SREBP activation (SREBP) was 2.7 fold induction and 2.9 fold induction and 1.95 fold induction.
For `CC(/C=C/[C@@H]1C[C@]1(C)c1cc2c(cc1C)C(C)(C)CCC2(C)C)=C\C(=O)O` [reference compound], the activity at 0.1 µM ([1]; at 100 nM) was 15 to 20%, the “Triglyccerides (Rodent Models)” value [2] was “Elevated” and the “Lung Cancer Model Rank Order” value (Lung Cancer Model) was 2. For the same compound, the SREBP activation (SREBP) was about 3.6 fold induction and the EC50 (human RXRa) was 1 to 25 nM.
`C=C(c1ccc(C(=O)O)cc1)c1cc(C(C)C)c(OCC(C)C)cc1C` [drawing 111] showed an activity at 0.3 µM [1] of 40%, an SREBP activation (SREBP) of 1.2 fold induction and a logD (LogD at pH 7.4) of 3.5.
Compound `C=C(c1ccc(C(=O)O)cc1)c1cc(C(C)C)c(OC(C)C)cc1C` [drawing 114] has an activity at 0.3 µM [1] of 40%, an SREBP activation (SREBP) of 4.7 fold induction and a logD (LogD at pH 7.4) of 3.1.
In the case of `CCN(c1ccc2c(c1)C(C)(C)CCC2(C)C)c1ccc(C(=O)O)cn1` [reference compound], the “Triglyccerides (Rodent Models)” value [2] is reported as “Elevated (mice)” and the EC50 (human RXRa) is reported as 1 to 25 nM.
In the case of `CCN(c1ccc(C(=O)O)cc1)c1cc(C(C)(C)C)cc(C(C)(C)C)c1` [drawing 104], the activity at 0.3 µM [1] is reported as 43%, the SREBP activation (SREBP) is reported as 1.8 fold induction and 2.5 fold induction and the logD (LogD at pH 7.4) is reported as 4.
